In the CheMixHub ionic liquid set:
± gives the uncertainty stated by the source.

Assay: xn = mol fraction of the nth substance listed

CC(C)[C@H](N)C(=O)O + CCCCCCCCCCCCCCCC[n+]1ccccc1.O=C([O-])C(O)c1ccccc1 + O
Settings | electrical conductivity [S/m]
313.15 K, 101 kPa, x2 = 0, x1 = 0.001799 | 0.0016 ± 0.0013

CC(C)[C@H](N)C(=O)O + CCCCCCCCCCCCCCCC[n+]1ccccc1.O=C([O-])c1ccccc1O + O
Settings | electrical conductivity [S/m]
313.15 K, 101 kPa, x1 = 0.001799, x2 = 0 | 0.00161 ± 9.7e-05

C[C@@H](O)[C@H](N)C(=O)O + CCCCCCCCCCCCCCCC[n+]1ccccc1.[Cl-] + O
308.15 K, 101 kPa, x2 = 0
Settings | electrical conductivity [S/m]
x1 = 2.018e-05 | 0.000218 ± 2e-06
x1 = 0.0002 | 7.7e-05 ± 1e-06
x1 = 0.0009182 | 0.000219 ± 2e-06

CC(C)[C@H](N)C(=O)O + CCCCCCCCCCCCCC[n+]1ccccc1.O=C([O-])C(O)c1ccccc1 + O
Settings | electrical conductivity [S/m]
313.15 K, 101 kPa, x2 = 0, x1 = 0.001799 | 0.00161 ± 0.00067

CC(=O)[O-].CCCC[N+](CCCC)(CCCC)CCCC + CCCCCCCCCCCCOS(=O)(=O)[O-].[Na+] + O
viscosity [mPa·s], 100 kPa, x1 = 0.0001802
Settings | x2 = 1.81e-06 | x2 = 3.61e-06 | x2 = 5.42e-06 | x2 = 7.23e-06 | x2 = 9.04e-06 | x2 = 1.084e-05 | x2 = 1.265e-05 | x2 = 1.446e-05 | x2 = 1.626e-05 | x2 = 1.807e-05
293.15 K | 0.997 ± 0.029 | 1 ± 0.029 | 1.004 ± 0.029 | 1.004 ± 0.029 | 1.006 ± 0.029 | 1.007 ± 0.029 | 1.007 ± 0.029 | 1.008 ± 0.029 | 1.008 ± 0.029 | 1.008 ± 0.029
298.15 K | 0.89 ± 0.028 | 0.893 ± 0.028 | 0.894 ± 0.028 | 0.894 ± 0.028 | 0.898 ± 0.028 | 0.901 ± 0.028 | 0.902 ± 0.028 | 0.903 ± 0.028 | 0.904 ± 0.028 | 0.904 ± 0.028
303.15 K | 0.756 ± 0.028 | 0.758 ± 0.028 | 0.76 ± 0.028 | 0.763 ± 0.028 | 0.764 ± 0.028 | 0.765 ± 0.028 | 0.766 ± 0.028 | 0.768 ± 0.028 | 0.768 ± 0.028 | 0.769 ± 0.028
308.15 K | 0.679 ± 0.027 | 0.68 ± 0.027 | 0.681 ± 0.027 | 0.683 ± 0.027 | 0.684 ± 0.027 | 0.684 ± 0.027 | 0.686 ± 0.027 | 0.687 ± 0.027 | 0.688 ± 0.027 | 0.688 ± 0.027
313.15 K | 0.605 ± 0.027 | 0.606 ± 0.027 | 0.606 ± 0.027 | 0.608 ± 0.027 | 0.609 ± 0.027 | 0.609 ± 0.027 | 0.611 ± 0.027 | 0.612 ± 0.027 | 0.612 ± 0.027 | 0.613 ± 0.027
318.15 K | 0.569 ± 0.027 | 0.572 ± 0.027 | 0.572 ± 0.027 | 0.574 ± 0.027 | 0.575 ± 0.027 | 0.575 ± 0.027 | 0.577 ± 0.027 | 0.578 ± 0.027 | 0.578 ± 0.027 | 0.579 ± 0.027
